Tests used:
[1] = target: Fibroblast growth factor receptor 1 (Homo sapiens, UniProt P11362); experiment: Inhibition of FGFR1 (unknown origin)
[2] = Inhibition of SLC34A2/ROS (unknown origin); design: species or system Homo sapiens
[3] = target: Serine/threonine-protein kinase PLK1 (Homo sapiens, UniProt P53350); experiment: Inhibition of PLK-1 (unknown origin)
[4] = target: Serine/threonine-protein kinase PLK2 (Homo sapiens, UniProt Q9NYY3); experiment: Inhibition of PLK-2 (unknown origin)
[5] = target: Serine/threonine-protein kinase PLK3 (Homo sapiens, UniProt Q9H4B4); experiment: Inhibition of PLK-3 (unknown origin)
Sequence of Serine/threonine-protein kinase PLK3 (Q9H4B4 whole entry): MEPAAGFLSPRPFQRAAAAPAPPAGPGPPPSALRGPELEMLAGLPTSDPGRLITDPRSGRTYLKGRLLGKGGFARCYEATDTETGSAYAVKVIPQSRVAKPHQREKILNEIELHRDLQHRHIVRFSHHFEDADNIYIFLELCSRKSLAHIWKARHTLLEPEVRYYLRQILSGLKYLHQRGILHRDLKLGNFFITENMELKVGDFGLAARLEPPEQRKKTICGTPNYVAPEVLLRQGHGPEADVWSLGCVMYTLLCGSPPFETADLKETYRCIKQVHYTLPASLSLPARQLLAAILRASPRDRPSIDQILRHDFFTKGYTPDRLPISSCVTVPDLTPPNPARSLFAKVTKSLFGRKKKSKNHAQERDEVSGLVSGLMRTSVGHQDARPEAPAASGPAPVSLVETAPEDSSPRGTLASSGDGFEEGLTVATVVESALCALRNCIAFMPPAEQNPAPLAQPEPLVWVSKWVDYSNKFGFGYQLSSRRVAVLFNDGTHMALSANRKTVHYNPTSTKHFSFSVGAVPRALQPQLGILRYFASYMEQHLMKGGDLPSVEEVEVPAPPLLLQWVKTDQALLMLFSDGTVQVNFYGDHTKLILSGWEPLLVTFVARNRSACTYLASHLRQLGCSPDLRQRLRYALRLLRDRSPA

Sequence of Fibroblast growth factor receptor 1 (P11362 whole entry): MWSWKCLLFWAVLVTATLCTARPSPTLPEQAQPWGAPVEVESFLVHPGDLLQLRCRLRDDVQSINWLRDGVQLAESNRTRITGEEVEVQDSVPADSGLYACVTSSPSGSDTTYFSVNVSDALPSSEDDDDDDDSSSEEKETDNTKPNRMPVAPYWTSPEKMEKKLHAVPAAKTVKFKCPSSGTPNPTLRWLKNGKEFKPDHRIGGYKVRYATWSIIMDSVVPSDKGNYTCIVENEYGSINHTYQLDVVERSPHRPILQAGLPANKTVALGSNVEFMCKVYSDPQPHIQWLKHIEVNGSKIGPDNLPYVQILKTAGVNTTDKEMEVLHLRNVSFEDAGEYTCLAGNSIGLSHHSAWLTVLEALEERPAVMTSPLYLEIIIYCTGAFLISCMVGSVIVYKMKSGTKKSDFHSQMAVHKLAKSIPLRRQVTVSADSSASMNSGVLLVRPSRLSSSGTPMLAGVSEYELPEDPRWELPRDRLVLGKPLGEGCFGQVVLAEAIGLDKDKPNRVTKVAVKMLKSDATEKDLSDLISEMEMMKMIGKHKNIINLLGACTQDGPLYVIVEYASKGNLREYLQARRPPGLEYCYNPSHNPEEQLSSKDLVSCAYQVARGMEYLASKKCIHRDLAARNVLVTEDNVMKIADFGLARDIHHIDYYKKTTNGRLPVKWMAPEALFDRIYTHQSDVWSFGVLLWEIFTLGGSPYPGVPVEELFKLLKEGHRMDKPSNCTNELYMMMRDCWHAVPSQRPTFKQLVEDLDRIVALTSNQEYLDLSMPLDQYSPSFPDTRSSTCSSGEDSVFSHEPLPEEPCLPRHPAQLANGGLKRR
Sequence of Serine/threonine-protein kinase PLK1 (P53350 whole entry): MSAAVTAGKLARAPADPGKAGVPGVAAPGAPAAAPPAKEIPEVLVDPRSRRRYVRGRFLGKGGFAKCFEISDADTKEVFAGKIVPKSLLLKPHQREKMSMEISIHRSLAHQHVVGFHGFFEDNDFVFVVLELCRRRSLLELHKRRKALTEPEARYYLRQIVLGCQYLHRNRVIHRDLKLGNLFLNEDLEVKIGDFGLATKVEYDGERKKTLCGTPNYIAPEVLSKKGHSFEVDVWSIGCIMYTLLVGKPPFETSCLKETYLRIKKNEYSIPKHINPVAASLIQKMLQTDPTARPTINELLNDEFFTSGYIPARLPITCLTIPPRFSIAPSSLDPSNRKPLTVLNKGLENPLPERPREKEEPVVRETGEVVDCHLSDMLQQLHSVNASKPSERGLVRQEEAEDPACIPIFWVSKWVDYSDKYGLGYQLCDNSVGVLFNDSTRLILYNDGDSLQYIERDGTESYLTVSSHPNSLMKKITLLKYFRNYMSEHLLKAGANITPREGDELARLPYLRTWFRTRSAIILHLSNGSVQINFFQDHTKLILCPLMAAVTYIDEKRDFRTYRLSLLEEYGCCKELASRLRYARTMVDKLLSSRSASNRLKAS
Sequence of Serine/threonine-protein kinase PLK2 (Q9NYY3 whole entry): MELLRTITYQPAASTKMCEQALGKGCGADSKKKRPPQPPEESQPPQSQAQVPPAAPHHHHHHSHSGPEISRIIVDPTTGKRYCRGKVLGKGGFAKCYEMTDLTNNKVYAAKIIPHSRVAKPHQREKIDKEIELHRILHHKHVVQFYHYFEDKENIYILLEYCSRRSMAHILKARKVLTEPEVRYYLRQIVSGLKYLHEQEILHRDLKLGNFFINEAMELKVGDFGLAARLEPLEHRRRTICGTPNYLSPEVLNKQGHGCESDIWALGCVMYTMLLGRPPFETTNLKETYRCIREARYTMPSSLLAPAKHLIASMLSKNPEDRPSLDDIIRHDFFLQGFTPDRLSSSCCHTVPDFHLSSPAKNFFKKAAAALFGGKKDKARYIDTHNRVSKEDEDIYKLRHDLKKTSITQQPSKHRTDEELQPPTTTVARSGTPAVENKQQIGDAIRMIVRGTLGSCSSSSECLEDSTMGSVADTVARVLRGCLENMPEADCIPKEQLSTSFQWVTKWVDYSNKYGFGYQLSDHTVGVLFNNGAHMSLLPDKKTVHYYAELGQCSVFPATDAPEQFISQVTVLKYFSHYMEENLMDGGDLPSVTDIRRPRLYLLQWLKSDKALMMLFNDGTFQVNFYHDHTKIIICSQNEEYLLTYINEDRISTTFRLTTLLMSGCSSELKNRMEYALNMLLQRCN

`COc1ccc2c(c1)[C@]1(C[C@H]1c1ccc3c(/C=C/c4ccc(CN5C[C@@H](C)O[C@@H](C)C5)cc4)n[nH]c3c1)C(=O)N2` [OCIFISERTIB] gave an EC50 [1] of 1100 nM, an EC50 [2] of 466 nM and an IC50 [3] of over 50 µM. For the same molecule, the IC50 [4] was over 50 µM and the IC50 [5] was over 50 µM.
